Columns and labels:
[1] = test system: L-Type Ca channel (dihydropyridine); experiment: Radioligand displacement (Ricerca); type: binding, rat; conditions: 10 μM
[2] = Microsomal clearance, murine liver microsomes; type: in vitro ADME, mouse
Description: DMPK Methods. […] After a 5 min preincubation, the reaction was initiated by addition of NADPH (1 mM). At selected time intervals (0, 3, 7, 15, 25, and 45 min), 50 μL aliquots were taken and subsequently placed into a 96-well plate containing 150 μL of cold acetonitrile with internal standard (50 ng/mL carbamazepine). Plates were then centrifuged at 3000 rcf (4° C.) for 10 min, and the supernatant was transferred to a separate 96-well plate and diluted 1:1 with water for LC/MS/MS analysis. […] Liquid Chromatography/Mass Spectrometry Analysis. In vitro experiments. VU0456810 was analyzed on a Thermo Electron TSQ Quantum Ultra triple quad mass spectrometer (San Jose, Calif.) via electrospray ionization (ESI) with two Themo Electron Accella pumps (San Jose, Calif.), and a Leap Technologies CTC PAL autosampler (Carrboro, N.C.). Analytes were separated by gradient elution on a dual column system with two Thermo Hypersil Gold (2.1×30 mm, 1.9 μm) columns (San Jose, Calif.) at 40° C. […] The total run time was 1.3 min and the HPLC flow rate was 0.8 mL/min. […] Compound optimization, data collection and processing were performed using Thermo Electron's QuickQuan software (v2.3) and Xcalibur (v2.0.7 SP1).

[3] = target: T1, Dopamine D4.2 (Homo sapiens, UniProt P21917, DEL265-296); experiment: Radioligand displacement (Ricerca); type: binding
T1 construct: Ricerca

[4] = test system: Purinergic P2X; experiment: Radioligand displacement (Ricerca); type: binding, rabbit; conditions: 10 μM
[5] = target: T2, EGF (Homo sapiens, UniProt P00533); experiment: Radioligand displacement (Ricerca); type: binding
T2 construct: Ricerca

[6] = target: T3, Kir2.1 (Homo sapiens, UniProt P63252); experiment: Thallium flux assay, Kir2.1-expressing cells; type: cell-based
T3 construct: expressed in transfected cells; host or cells: T-REx-293
Source text: Cell Line Construction and Cell Culture. HEK-293 cells co-expressing human GIRK1/2 and rat mGlu8 were generated as previously described (Niswender et al., 2008). A HEK-293 cell line (ATCC, Manassas, Va.) expressing human GIRK1 and human GIRK2 was constructed by transfecting HEK-293 cells with GIRK1 and GIRK2 (Origene, Rockville, Md.) cloned into the pBudCE4.1 vector (Life Technologies, Carlsbad, Calif.) using FuGene 6 (Promega, Madison, Wis.) transfection reagent. Unless otherwise noted, other ion channel-expressing cells were prepared by transfecting HEK-293 cells with individual or combinations of subunits: GIRK1, pCMV6-A-BSD; GIRK2, pCMV6-A-puro; GIRK3, pCMV6-A-hygro; GIRK4, pCMV6-A-AC; Kv7.4, pIRESneo3. The Kir2.1 and hERG-expressing cell lines were made by transfecting T-REx-293 cells (Life Technologies, Carlsbad, Calif.) with Kir2.1 and Kv11.1, respectively, cloned into pcDNA5TO. Monoclonal cell lines were produced by limiting-dilution cloning of antibiotic-resistant cells and functional selection using the thallium flux assay described below. Unless otherwise noted, cells were maintained in Minimal Essential Medium, Alpha Medium (Mediatech, Manassas, Va.) supplemented with 10% fetal bovine serum (Sigma-Aldrich, Saint Louis, Mo.) and GlutaGro (Mediatech, Manassas, Va.), referred to henceforth as cell culture medium. […]

T3 sequence (P63252 whole entry): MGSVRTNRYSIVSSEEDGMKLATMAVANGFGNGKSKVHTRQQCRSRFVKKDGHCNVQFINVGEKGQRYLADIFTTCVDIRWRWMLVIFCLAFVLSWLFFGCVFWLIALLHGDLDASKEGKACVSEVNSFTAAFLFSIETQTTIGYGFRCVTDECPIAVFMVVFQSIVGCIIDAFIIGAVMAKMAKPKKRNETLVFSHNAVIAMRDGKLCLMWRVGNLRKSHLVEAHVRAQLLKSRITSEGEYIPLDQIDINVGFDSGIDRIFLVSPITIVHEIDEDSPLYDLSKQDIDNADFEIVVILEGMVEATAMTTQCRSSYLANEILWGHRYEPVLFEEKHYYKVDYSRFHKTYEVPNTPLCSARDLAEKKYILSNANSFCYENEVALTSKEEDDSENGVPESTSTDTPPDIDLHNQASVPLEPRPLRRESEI
T2 sequence (P00533 25-1210): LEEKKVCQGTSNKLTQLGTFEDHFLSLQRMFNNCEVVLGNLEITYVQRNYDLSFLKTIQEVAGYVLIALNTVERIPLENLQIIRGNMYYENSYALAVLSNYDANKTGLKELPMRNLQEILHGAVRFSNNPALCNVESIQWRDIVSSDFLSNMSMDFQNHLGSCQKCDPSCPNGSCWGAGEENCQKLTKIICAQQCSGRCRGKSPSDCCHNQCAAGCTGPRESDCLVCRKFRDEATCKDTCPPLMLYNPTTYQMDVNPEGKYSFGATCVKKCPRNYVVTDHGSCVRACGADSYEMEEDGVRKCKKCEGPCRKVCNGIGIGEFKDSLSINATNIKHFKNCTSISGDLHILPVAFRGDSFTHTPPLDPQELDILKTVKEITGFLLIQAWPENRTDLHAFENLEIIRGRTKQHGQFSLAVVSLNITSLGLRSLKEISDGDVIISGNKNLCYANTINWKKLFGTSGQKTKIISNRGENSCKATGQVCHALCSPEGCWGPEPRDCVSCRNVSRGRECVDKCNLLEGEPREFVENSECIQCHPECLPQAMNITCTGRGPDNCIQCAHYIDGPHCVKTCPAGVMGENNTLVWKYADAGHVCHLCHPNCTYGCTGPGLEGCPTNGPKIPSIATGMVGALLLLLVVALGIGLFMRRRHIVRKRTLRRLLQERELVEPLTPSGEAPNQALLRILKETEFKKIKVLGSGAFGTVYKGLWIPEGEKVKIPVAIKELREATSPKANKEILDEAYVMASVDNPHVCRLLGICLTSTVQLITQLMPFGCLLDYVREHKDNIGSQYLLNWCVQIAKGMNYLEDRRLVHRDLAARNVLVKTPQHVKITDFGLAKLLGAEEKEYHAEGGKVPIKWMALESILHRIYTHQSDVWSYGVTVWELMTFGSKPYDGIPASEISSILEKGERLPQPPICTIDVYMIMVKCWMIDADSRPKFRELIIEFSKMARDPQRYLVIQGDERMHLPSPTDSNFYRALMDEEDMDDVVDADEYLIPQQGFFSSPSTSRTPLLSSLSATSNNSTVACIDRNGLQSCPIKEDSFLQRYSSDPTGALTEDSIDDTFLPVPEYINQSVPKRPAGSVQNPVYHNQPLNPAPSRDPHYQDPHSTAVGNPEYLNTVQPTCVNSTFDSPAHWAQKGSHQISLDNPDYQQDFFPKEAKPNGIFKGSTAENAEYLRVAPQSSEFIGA
T1 sequence (P21917 with tags, fused parts or gaps DEL265-296): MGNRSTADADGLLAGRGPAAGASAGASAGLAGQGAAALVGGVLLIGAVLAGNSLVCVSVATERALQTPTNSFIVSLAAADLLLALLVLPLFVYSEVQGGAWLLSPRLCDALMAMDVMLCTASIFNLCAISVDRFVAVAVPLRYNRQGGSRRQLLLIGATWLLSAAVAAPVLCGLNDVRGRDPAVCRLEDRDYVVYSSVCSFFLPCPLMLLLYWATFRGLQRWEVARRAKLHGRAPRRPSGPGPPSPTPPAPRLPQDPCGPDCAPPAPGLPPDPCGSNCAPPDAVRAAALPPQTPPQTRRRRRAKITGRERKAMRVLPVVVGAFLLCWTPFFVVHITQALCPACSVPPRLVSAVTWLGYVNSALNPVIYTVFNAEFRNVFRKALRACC

Cc1cc(NC(=O)Nc2ccc(F)c(F)c2)n(-c2ccccc2)n1 [VU0456810, 1-(3,4-difluorophenyl)-3-(3-methyl-1-phenyl-1H-pyrazol-5-yl)urea]
% Inhibition [1]: 3% | rClHEP [2]: 88 mL/min/kg | CLhep predicted at 1 μM ([2]; mouse, pH 7.4): 88 mL/min/kg | inhibition at 10 µM [3]: 4% | % Inhibition [4]: 16% | inhibition at 10 µM [5]: -2% | Potency [6]: Inactive
